Tested on: Transport facilitation protein genes
Assay: DNA chip mRNA expression in yeast, transport facilitation protein genes (Table 5)
Format: cell-based, Saccharomyces cerevisiae S288C
Method in brief: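 S. cerevisiae S288C grown at 25° C in YPD were exposed in log phase for two hours to one toxic chemical at a growth-inhibiting, non-lethal concentration; untreated cells served as control. Poly(A) mRNA was reverse-transcribed with Cy3/Cy5-dUTP and hybridized to a whole-genome yeast DNA chip at 65° C for over 12 hours; values are fluorescence ratios versus untreated.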

C=CC=O [(14), acrolein]
The level of expressed mRNA in the presence of chemical substance/The level of expressed mRNA in the absence of chemical substance (yeast gene YBL030C): 0.8 | The level of expressed mRNA in the presence of chemical substance/The level of expressed mRNA in the absence of chemical substance (yeast gene YBL099W): 0.6 | The level of expressed mRNA in the presence of chemical substance/The level of expressed mRNA in the absence of chemical substance (yeast gene YBR052C): 1.5 | The level of expressed mRNA in the presence of chemical substance/The level of expressed mRNA in the absence of chemical substance (yeast gene YBR068C): 1.8 | The level of expressed mRNA in the presence of chemical substance/The level of expressed mRNA in the absence of chemical substance (yeast gene YBR127C): 0.6 | The level of expressed mRNA in the presence of chemical substance/The level of expressed mRNA in the absence of chemical substance (yeast gene YBR132C): 1.1 | The level of expressed mRNA in the presence of chemical substance/The level of expressed mRNA in the absence of chemical substance (yeast gene YBR207W): 0.9 | The level of expressed mRNA in the presence of chemical substance/The level of expressed mRNA in the absence of chemical substance (yeast gene YBR293W): 1.4 | The level of expressed mRNA in the presence of chemical substance/The level of expressed mRNA in the absence of chemical substance (yeast gene YBR294W): 1.3 | The level of expressed mRNA in the presence of chemical substance/The level of expressed mRNA in the absence of chemical substance (yeast gene YBR295W): 1.1 | The level of expressed mRNA in the presence of chemical substance/The level of expressed mRNA in the absence of chemical substance (yeast gene YBR298C): 0.9 | The level of expressed mRNA in the presence of chemical substance/The level of expressed mRNA in the absence of chemical substance (yeast gene YCL025C): 0.7 | The level of expressed mRNA in the presence of chemical substance/The level of expressed mRNA in the absence of chemical substance (yeast gene YCL038C): 1.3 | The level of expressed mRNA in the presence of chemical substance/The level of expressed mRNA in the absence of chemical substance (yeast gene YCR024C-A): 0.8 | The level of expressed mRNA in the presence of chemical substance/The level of expressed mRNA in the absence of chemical substance (yeast gene YCR037C): 0.8 | The level of expressed mRNA in the presence of chemical substance/The level of expressed mRNA in the absence of chemical substance (yeast gene YCR098C): 1.1 | The level of expressed mRNA in the presence of chemical substance/The level of expressed mRNA in the absence of chemical substance (yeast gene YDL128W): 0.7 | The level of expressed mRNA in the presence of chemical substance/The level of expressed mRNA in the absence of chemical substance (yeast gene YDL198C): 1.7 | The level of expressed mRNA in the presence of chemical substance/The level of expressed mRNA in the absence of chemical substance (yeast gene YDL210W): 1.1 | The level of expressed mRNA in the presence of chemical substance/The level of expressed mRNA in the absence of chemical substance (yeast gene YDL245C): 1.2 | The level of expressed mRNA in the presence of chemical substance/The level of expressed mRNA in the absence of chemical substance (yeast gene YDR038C): 0.8 | The level of expressed mRNA in the presence of chemical substance/The level of expressed mRNA in the absence of chemical substance (yeast gene YDR039C): 0.9 | The level of expressed mRNA in the presence of chemical substance/The level of expressed mRNA in the absence of chemical substance (yeast gene YDR086C): 1.5 | The level of expressed mRNA in the presence of chemical substance/The level of expressed mRNA in the absence of chemical substance (yeast gene YDR270W): 1.0 | The level of expressed mRNA in the presence of chemical substance/The level of expressed mRNA in the absence of chemical substance (yeast gene YDR298C): 1.5 | The level of expressed mRNA in the presence of chemical substance/The level of expressed mRNA in the absence of chemical substance (yeast gene YDR342C): 0.9 | The level of expressed mRNA in the presence of chemical substance/The level of expressed mRNA in the absence of chemical substance (yeast gene YDR343C): 0.8 | The level of expressed mRNA in the presence of chemical substance/The level of expressed mRNA in the absence of chemical substance (yeast gene YDR345C): 0.8 | The level of expressed mRNA in the presence of chemical substance/The level of expressed mRNA in the absence of chemical substance (yeast gene YDR387C): 0.9 | The level of expressed mRNA in the presence of chemical substance/The level of expressed mRNA in the absence of chemical substance (yeast gene YDR497C): 0.6 | The level of expressed mRNA in the presence of chemical substance/The level of expressed mRNA in the absence of chemical substance (yeast gene YEL027W): 1.4 | The level of expressed mRNA in the presence of chemical substance/The level of expressed mRNA in the absence of chemical substance (yeast gene YEL063C): 0.8 | The level of expressed mRNA in the presence of chemical substance/The level of expressed mRNA in the absence of chemical substance (yeast gene YEL065W): 0.4 | The level of expressed mRNA in the presence of chemical substance/The level of expressed mRNA in the absence of chemical substance (yeast gene YER053C): 1.3 | The level of expressed mRNA in the presence of chemical substance/The level of expressed mRNA in the absence of chemical substance (yeast gene YFL011W): 0.8 | The level of expressed mRNA in the presence of chemical substance/The level of expressed mRNA in the absence of chemical substance (yeast gene YFL041W): 1.0 | The level of expressed mRNA in the presence of chemical substance/The level of expressed mRNA in the absence of chemical substance (yeast gene YFL050C): 1.0 | The level of expressed mRNA in the presence of chemical substance/The level of expressed mRNA in the absence of chemical substance (yeast gene YFL054C): 0.9 | The level of expressed mRNA in the presence of chemical substance/The level of expressed mRNA in the absence of chemical substance (yeast gene YGL006W): 0.9 | The level of expressed mRNA in the presence of chemical substance/The level of expressed mRNA in the absence of chemical substance (yeast gene YGL008C): 1.2 | The level of expressed mRNA in the presence of chemical substance/The level of expressed mRNA in the absence of chemical substance (yeast gene YGL104C): 1.0 | The level of expressed mRNA in the presence of chemical substance/The level of expressed mRNA in the absence of chemical substance (yeast gene YGL167C): 0.8 | The level of expressed mRNA in the presence of chemical substance/The level of expressed mRNA in the absence of chemical substance (yeast gene YGL255W): 1.0 | The level of expressed mRNA in the presence of chemical substance/The level of expressed mRNA in the absence of chemical substance (yeast gene YGR055W): 1.2 | The level of expressed mRNA in the presence of chemical substance/The level of expressed mRNA in the absence of chemical substance (yeast gene YGR065C): 1.3 | The level of expressed mRNA in the presence of chemical substance/The level of expressed mRNA in the absence of chemical substance (yeast gene YGR082W): 0.9 | The level of expressed mRNA in the presence of chemical substance/The level of expressed mRNA in the absence of chemical substance (yeast gene YGR096W): 1.2 | The level of expressed mRNA in the presence of chemical substance/The level of expressed mRNA in the absence of chemical substance (yeast gene YGR138C): 0.9 | The level of expressed mRNA in the presence of chemical substance/The level of expressed mRNA in the absence of chemical substance (yeast gene YGR191W): 0.7 | The level of expressed mRNA in the presence of chemical substance/The level of expressed mRNA in the absence of chemical substance (yeast gene YGR197C): 1.5 | The level of expressed mRNA in the presence of chemical substance/The level of expressed mRNA in the absence of chemical substance (yeast gene YGR224W): 0.9 | The level of expressed mRNA in the presence of chemical substance/The level of expressed mRNA in the absence of chemical substance (yeast gene YGR260W): 0.7 | The level of expressed mRNA in the presence of chemical substance/The level of expressed mRNA in the absence of chemical substance (yeast gene YGR281W): 0.9

Source: US8192962B2, “Processes for detecting toxic substances” (Daikin Industries, Ltd., priority 2001, dated 2012)
